Laboratory results: PubChem BioAssay (NCI)
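Dose response: 5 concentrations. Exposure: 48 h. Format: 96-well plates. Endpoint: linear interpolation; highest concentration if not reached. GI50 = concentration required for 50% inhibition of growth. TGI: concentration producing complete growth inhibition.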

Assays:
Experiment in all cases: growth of human tumour cells (NCI), 48 h
786-0 renal = test system: 786-0 renal
A498 renal = test system: A498 renal
A549 NSCLC = test system: A549 NSCLC
ACHN renal = test system: ACHN renal
BT-549 breast = test system: BT-549 breast
CAKI-1 renal = test system: CAKI-1 renal
CCRF-CEM leukemia = test system: CCRF-CEM leukemia
COLO 205 colon = test system: COLO 205 colon
DU-145 prostate = test system: DU-145 prostate
EKVX NSCLC = test system: EKVX NSCLC
HCC-2998 colon = test system: HCC-2998 colon
HCT-116 colon = test system: HCT-116 colon
HCT-15 colon = test system: HCT-15 colon
HL-60(TB) leukemia = test system: HL-60(TB) leukemia
HOP-62 NSCLC = test system: HOP-62 NSCLC
HOP-92 NSCLC = test system: HOP-92 NSCLC
HS 578T breast = test system: HS 578T breast
HT29 colon = test system: HT29 colon
K-562 leukemia = test system: K-562 leukemia
KM12 colon = test system: KM12 colon
LOX IMVI melanoma = test system: LOX IMVI melanoma
M14 melanoma = test system: M14 melanoma
MALME-3M melanoma = test system: MALME-3M melanoma
MCF7 breast = test system: MCF7 breast
MDA-MB-231 breast = test system: MDA-MB-231 breast
MDA-MB-435 = test system: MDA-MB-435
MOLT-4 leukemia = test system: MOLT-4 leukemia
NCI-H226 lung = test system: NCI-H226 lung
NCI-H23 lung = test system: NCI-H23 lung
NCI-H460 lung = test system: NCI-H460 lung
NCI-H522 lung = test system: NCI-H522 lung
NCI/ADR-RES ovarian = test system: NCI/ADR-RES ovarian
OVCAR-3 ovarian = test system: OVCAR-3 ovarian
OVCAR-4 ovarian = test system: OVCAR-4 ovarian
OVCAR-5 ovarian = test system: OVCAR-5 ovarian
OVCAR-8 ovarian = test system: OVCAR-8 ovarian
PC-3 prostate = test system: PC-3 prostate
RPMI-8226 leukemia = test system: RPMI-8226 leukemia
RXF 393 renal = test system: RXF 393 renal
SF-268 CNS = test system: SF-268 CNS
SF-295 CNS = test system: SF-295 CNS
SF-539 CNS = test system: SF-539 CNS
SK-MEL-2 melanoma = test system: SK-MEL-2 melanoma
SK-MEL-28 melanoma = test system: SK-MEL-28 melanoma
SK-MEL-5 melanoma = test system: SK-MEL-5 melanoma
SK-OV-3 ovarian = test system: SK-OV-3 ovarian
SN12C renal = test system: SN12C renal
SNB-19 CNS = test system: SNB-19 CNS
SNB-75 CNS = test system: SNB-75 CNS
SW-620 colon = test system: SW-620 colon
T-47D breast = test system: T-47D breast
TK-10 renal = test system: TK-10 renal
U251 CNS = test system: U251 CNS
UACC-257 melanoma = test system: UACC-257 melanoma
UACC-62 melanoma = test system: UACC-62 melanoma
UO-31 renal = test system: UO-31 renal

## COc1cc2c3c(n(CCCN=[N+]=[N-])c(=O)c2cc1OC)-c1ccc(C#N)cc1C3=O
786-0 renal
  GI50: 13.1 µM
  TGI: 33.7 µM
A498 renal
  GI50: 18.5 µM
  TGI: 58.5 µM
A549 NSCLC
  GI50: > 100 µM
  TGI: > 100 µM
ACHN renal
  GI50: 3.3 µM
  TGI: 13.1 µM
BT-549 breast
  GI50: 12.9 µM
  TGI: 28 µM
CAKI-1 renal
  GI50: 32 µM
  TGI: > 100 µM
CCRF-CEM leukemia
  GI50: > 100 µM
  TGI: > 100 µM
COLO 205 colon
  GI50: 92.3 µM
  TGI: > 100 µM
DU-145 prostate
  GI50: 34.3 µM
  TGI: > 100 µM
EKVX NSCLC
  GI50: 28.9 µM
  TGI: > 100 µM
HCC-2998 colon
  GI50: 44.6 µM
  TGI: > 100 µM
HCT-116 colon
  GI50: 24.1 µM
  TGI: > 100 µM
HCT-15 colon
  GI50: 57.9 µM
  TGI: > 100 µM
HL-60(TB) leukemia
  GI50: > 100 µM
  TGI: > 100 µM
HOP-62 NSCLC
  GI50: 14.2 µM
  TGI: 33.3 µM
HOP-92 NSCLC
  GI50: 21.2 µM
  TGI: 79.1 µM
HS 578T breast
  GI50: 9.67 µM
  TGI: 38.9 µM
HT29 colon
  GI50: > 100 µM
  TGI: > 100 µM
K-562 leukemia
  GI50: > 100 µM
  TGI: > 100 µM
KM12 colon
  GI50: > 100 µM
  TGI: > 100 µM
LOX IMVI melanoma
  GI50: 16.9 µM
  TGI: 46 µM
M14 melanoma
  GI50: 46.7 µM
  TGI: > 100 µM
MALME-3M melanoma
  GI50: 70.8 µM
  TGI: > 100 µM
MCF7 breast
  GI50: > 100 µM
  TGI: > 100 µM
MDA-MB-231 breast
  GI50: 2.93 µM
  TGI: 16.2 µM
MDA-MB-435
  GI50: > 100 µM
  TGI: > 100 µM
MOLT-4 leukemia
  GI50: > 100 µM
  TGI: > 100 µM
NCI-H226 lung
  GI50: 42.1 µM
  TGI: > 100 µM
NCI-H23 lung
  GI50: 8.75 µM
  TGI: 22 µM
NCI-H460 lung
  GI50: 27.7 µM
  TGI: > 100 µM
NCI-H522 lung
  GI50: 14.5 µM
  TGI: > 100 µM
NCI/ADR-RES ovarian
  GI50: 72.4 µM
  TGI: > 100 µM
OVCAR-3 ovarian
  GI50: 17 µM
  TGI: 58.2 µM
OVCAR-4 ovarian
  GI50: > 100 µM
  TGI: > 100 µM
OVCAR-5 ovarian
  GI50: 88.7 µM
  TGI: > 100 µM
OVCAR-8 ovarian
  GI50: 49.1 µM
  TGI: > 100 µM
PC-3 prostate
  GI50: > 100 µM
  TGI: > 100 µM
RPMI-8226 leukemia
  GI50: > 100 µM
  TGI: > 100 µM
RXF 393 renal
  GI50: 12.2 µM
  TGI: 30.2 µM
SF-268 CNS
  GI50: 17.7 µM
  TGI: > 100 µM
SF-295 CNS
  GI50: 14.1 µM
  TGI: 31.5 µM
SF-539 CNS
  GI50: 17.4 µM
  TGI: 47.2 µM
SK-MEL-2 melanoma
  GI50: 16.6 µM
  TGI: 86.1 µM
SK-MEL-28 melanoma
  GI50: > 100 µM
  TGI: > 100 µM
SK-MEL-5 melanoma
  GI50: > 100 µM
  TGI: > 100 µM
SK-OV-3 ovarian
  GI50: 15.5 µM
  TGI: 40.3 µM
SN12C renal
  GI50: 15.7 µM
  TGI: > 100 µM
SNB-19 CNS
  GI50: 37 µM
  TGI: > 100 µM
SNB-75 CNS
  GI50: 4.27 µM
  TGI: 21.4 µM
SW-620 colon
  GI50: > 100 µM
  TGI: > 100 µM
T-47D breast
  GI50: > 100 µM
  TGI: > 100 µM
TK-10 renal
  GI50: 17 µM
  TGI: 34.9 µM
U251 CNS
  GI50: 10.5 µM
  TGI: 27.6 µM
UACC-257 melanoma
  GI50: > 100 µM
  TGI: > 100 µM
UACC-62 melanoma
  GI50: 12.4 µM
  TGI: 37.4 µM
UO-31 renal
  GI50: > 100 µM
  TGI: > 100 µM
